Test results: patent US9796753B2, “N-substituted indenoisoquinolines and syntheses thereof” (Purdue Research Foundation, priority 2005, dated 2017)
Where two headings read alike, the source gives them in different places.

Legend:
Assay type in all cases: cell-based
CNS SF-539 = test: COMPARE screening (NCI human cancer cell line screen), cytotoxicity GI50
Description: (§1) Selected compounds were tested for antiproliferative activity in the National Cancer Institute's developmental therapeutics assay 60 cell line screen (NCI60). The cells were incubated with the tested compounds at 100, 10, 1, 0.1, and 0.01 μM concentrations for 48 h before treatment with sulforhodamine B dye. Optical densities were recorded, and their ratios relative to that of the control were plotted as percentage growth against the log 10 of the tested compound concentrations.

colon HCT-116 = test: as above
Description: as §1

lung HOP-62 = test: as above
Description: as §1

melanoma UACC-62 = test: as above
Description: as §1

ovarian OVCAR-3 = test: as above
Description: as §1

prostate DU-145 = test: as above
Description: as §1

renal SN12C = test: as above
Description: as §1

breast MDA-MB-435 = test: as above
[1] = test system: all human cancer cell lines successfully tested; test: NCI screen mean graph midpoint (MGM) for growth inhibition; conditions: Table 1; average GI50 of all cell lines tested (approximately 55), test range 10^−8 to 10^−4 molar
Description: COMPARE screening. The compounds described herein were examined for antiproliferative activity against the human cancer cell lines in the National Cancer Institute screen (COMPARE screening), in which the activity of each compound was evaluated with approximately 55 different cancer cell lines of diverse tumor origins. […] Therefore, the MGM value represents an overall assessment of toxicity of the compound across numerous cell lines.
as §1
The cytotoxicities of the compounds to cultured cancer cells were measured in the National Cancer Institute's 60 cell line assay (a.k.a. NCI-60).

[2] = Table 1, concentration corresponding to 50% growth inhibition, read-out: cytotoxicity (GI50) ovarian OVCAR-3

SMILES	GI50 (CNS SF-539)	GI50 (colon HCT-116)	GI50 (lung HOP-62)	GI50 (melanoma UACC-62)	GI50 (ovarian OVCAR-3)	GI50 (prostate DU-145)	GI50 (renal SN12C)	GI50 (breast MDA-MB-435)	MGM (mean graph midpoint for growth inhibition) [1]	MGM (mean GI50 across cell lines) [1]	GI50 (ovarian OVCAR-3; [2])
COc1ccc2c(c1)C(=O)c1c-2n(CCCCl)c(=O)c2cc([N+](=O)[O-])ccc12 [Compound 5ba]	27 nM	794 nM	295 nM	< 10 nM	3390 nM	36 nM	< 10 nM	3240 nM	0.178 ± 0.012 µM	–	–
COc1ccc2c(c1)C(=O)c1c-2n(CCCN=[N+]=[N-])c(=O)c2ccccc12 [Compound 5bf]	44700 nM	26900 nM	33900 nM	75900 nM	52500 nM	61700 nM	> 100000 nM	64600 nM	–	38900 nM	–
COc1ccc2c(c1)C(=O)c1c-2n(CCCN2CCOCC2)c(=O)c2ccccc12 [Compound 5bk]	1950 nM	1260 nM	1410 nM	1580 nM	2690 nM	2290 nM	4070 nM	4680 nM	2.70 ± 0.125 µM	–	–
Cl.O=C1c2ccccc2-c2c1c1ccc([N+](=O)[O-])cc1c(=O)n2CCCNCCO [Compound 5bl]	> 100000 nM	27 nM	31 nM	200 nM	1350 nM	> 100000 nM	229 nM	1070 nM	0.296 ± 0.067 µM	–	–
COc1ccc2c(c1)C(=O)c1c-2n(CCCNCCO)c(=O)c2ccccc12.Cl [Compound 5bn]	112 nM	44 nM	26 nM	550 nM	417 nM	55 nM	158 nM	389 nM	0.124 ± 0.014 µM	–	–
COc1ccc2c(c1)C(=O)c1c-2n(CCCN(C)C)c(=O)c2cc([N+](=O)[O-])ccc12 [Compound 5bp]	< 10 nM	< 10 nM	< 10 nM	< 10 nM	28 nM	< 10 nM	< 10 nM	< 10 nM	0.020 ± 0.001 µM	–	–
COc1ccc2c(c1)C(=O)c1c-2n(CCCN(C)C)c(=O)c2ccccc12 [Compound 5bq]	240 nM	102 nM	78 nM	1000 nM	427 nM	257 nM	245 nM	617 nM	0.300 ± 0.072 µM	–	–
COc1ccc2c(c1)C(=O)c1c-2n(CCCn2ccnc2)c(=O)c2cc([N+](=O)[O-])ccc12 [Compound 5br]	< 10 nM	< 10 nM	< 10 nM	< 10 nM	20 nM	< 10 nM	< 10 nM	< 10 nM	0.019 ± 0.004 µM	–	–
COc1ccc2c(c1)C(=O)c1c-2n(CCCn2ccnc2)c(=O)c2ccccc12 [Compound 5bs]	178 nM	110 nM	56 nM	71 nM	1660 nM	204 nM	676 nM	646 nM	0.416 ± 0.134 µM	–	–
COc1cc2c3c(n(CCCn4ccnc4)c(=O)c2cc1OC)-c1ccccc1C3=O [Compound 5e]	< 10 nM	10 nM	< 10 nM	< 10 nM	< 10 nM	< 10 nM	< 10 nM	14 nM	–	33 nM	–
O=C1c2ccccc2-c2c1c1ccc([N+](=O)[O-])cc1c(=O)n2CCCn1ccnc1 [Compound 5f]	16 nM	274 nM	190 nM	12 nM	864 nM	17 nM	15 nM	2170 nM	0.370 ± 0.28 µM	–	–
COc1cc2c3c(n(CCN4CCOCC4)c(=O)c2cc1OC)-c1ccccc1C3=O [Compound 5h]	> 100000 nM	60300 nM	89100 nM	56200 nM	> 100000 nM	> 100000 nM	> 100000 nM	> 100000 nM	–	741000 nM	–
O=C1c2ccccc2-c2c1c1ccccc1c(=O)n2CCN1CCOCC1 [Compound 5j]	85100 nM	36300 nM	> 100000 nM	29500 nM	81300 nM	> 100000 nM	93300 nM	> 100000 nM	–	67600 nM	–
COc1cc2c3c(n(CCCn4cccn4)c(=O)c2cc1OC)-c1cc2c(cc1C3=O)OCO2 [Compound 5m]	398 nM	1990 nM	447 nM	269 nM	56200 nM	363 nM	316 nM	7080 nM	2.16 ± 0.24 µM	–	–
COc1cc2c3c(n(CCCn4cncn4)c(=O)c2cc1OC)-c1cc2c(cc1C3=O)OCO2.Cl [Compound 5n, 6-{3-[2-(1,2,4)]-Triazolyl-1-propyl}-5,6-dihydro-2,3-dimethoxy-8,9-methylenedioxy-5,11-dioxo-11H-indeno[1,2-c]isoquinoline Hydrochloride]	288 nM	1910 nM	79 nM	< 10 nM	61700 nM	85 nM	85 nM	> 100000 nM	–	3550 nM	–
COc1cc2c3c(n(CCCNc4nccs4)c(=O)c2cc1OC)-c1cc2c(cc1C3=O)OCO2.Cl.Cl [Compound 5o, 6-(3-Thiazolylamino-1-propyl)-5,6-dihydro-2,3-dimethoxy-8,9-methylenedioxy-5,1-dioxo-11H-indeno[1,2-c]isoquinoline Dihydrochloride]	< 10 nM	< 10 nM	< 10 nM	14 nM	–	< 10 nM	< 10 nM	< 10 nM	0.112 ± 0.066 µM	–	41 nM
COc1cc2c3c(n(CCCN4CCN(C)CC4)c(=O)c2cc1OC)-c1cc2c(cc1C3=O)OCO2 [Compound 5t]	17800 nM	1480 nM	18200 nM	15100 nM	15100 nM	10700 nM	11500 nM	> 100000 nM	–	12000 nM	–
COc1cc2c3c(n(CCCN4CCC(N)CC4)c(=O)c2cc1OC)-c1cc2c(cc1C3=O)OCO2.Cl.Cl [Compound 5u, 6-[3-(4-Aminopiperidinyl)-1-propyl]-5,6-dihydro-2,3-dimethoxy-8,9-methylenedioxy-5,11-dioxo-11H-indeno[1,2-c]isoquinoline Dihydrochloride]	100 nM	120 nM	427 nM	1290 nM	–	182 nM	257 nM	1740 nM	0.766 ± 0.254 µM	–	832 nM
